Reference: patent US6165493A, “"Methods and compositions for decreasing the frequency of HIV, herpesvirus and sexually transmitted bacterial infections"” (New York Blood Center, Inc., priority 1998, dated 2000)
Peptide text beside a SMILES is read from it.

test system: not given; assay: not given; settings: some N-9 formulations; cited from earlier work

| Molecule | clinical adverse effects |
| --- | --- |
| nonoxynol-9 [N-9] | adverse effects |

test system: HIV-1; assay: inhibition of fusion between HIV-1 IIIB infected H9 cells and uninfected MT-2 cells; format: cell-based; settings: Human immunodeficiency virus 1, MT2, 1 h, read-out: Inhibition of Cell Fusion ED50 ± SD (effective dose for 50% inhibition of HIV-1 induced cell fusion); Table 1A; -- = none at 1000 μg/ml

| Molecule | IC50 [µg/mL] |
| --- | --- |
| CC1COC(=O)O1 (centres unmarked) [Propylene Carbonate] | > 1000 |
| Cc1cc(C(C)(C)C)c(O)c(C(C)(C)C)c1 [Butylated Hydroxytoluene] | > 1000 |
| C/C=C/C=C/C(=O)O [Sorbic Acid] | > 1000 |
| O=C(OCc1ccccc1)c1ccccc1 [Benzyl Benzoate] | > 1000 |
| CC1=CC(=O)NS(=O)(=O)O1 [Acesulfame Potassium] | > 1000 |
| CCCCOC(=O)CCCCCCCCC(=O)OCCCC [Dibutyl Sebacate] | > 1000 |
| CC1CCC(C(C)C)C(O)C1 (centres unmarked) [Menthol] | > 1000 |
| CCCOC(=O)c1cc(O)c(O)c(O)c1 [Propyl Gallate] | > 1000 |
| Cc1cc(O)ccc1Cl [Chlorocresol] | > 1000 |
| O=S(=O)(O)NC1CCCCC1 [Sodium Cyclamate] | > 1000 |
| CCCCCCCCCCCCCCCCCCOC(=O)/C=C/C(=O)[O-].[Na+] [Sodium Stearyl Fumarate] | > 1000 |
| CC(=O)OCC(COC(C)=O)OC(C)=O [Triacetin] | > 1000 |
| CCCOC(=O)c1ccc(O)cc1 [Propylparaben] | > 1000 |
| CCCCCCCCCCCCCCCC(=O)OC[C@H](O)[C@H]1OC(=O)C(O)=C1O [Ascorbyl Palmitate] | > 1000 |
| COC(=O)c1ccc(O)cc1 [Methylparaben] | > 1000 |
| O=[N+]([O-])C(Br)(CO)CO [Bronopol] | > 1000 |
| COc1cc(C=O)ccc1O [Vanillin] | > 1000 |
| Cc1occc(=O)c1O [Maltol] | > 1000 |
| CCOC(=O)c1ccc(O)cc1 [Ethylparaben] | > 1000 |
| COC(=O)[C@H](Cc1ccccc1)NC(=O)[C@@H](N)CC(=O)O [Aspartame] (HELM PEPTIDE1{D.F.[CO[*:1]]}$$$$V2.0) | > 1000 |
| CCCCOC(=O)c1ccc(O)cc1 [Butylparaben] | > 1000 |
| O=C(NCNC(=O)NC1C(=O)NC(=O)N1CO)NC1C(=O)NC(=O)N1CO (centres unmarked) [Imidurea] | > 1000 |
| O=C1NS(=O)(=O)c2ccccc21 [Saccharin] | > 1000 |

test system: heterosexual HIV-1, gonorrhea and chlamydia transmission; assay: not given; settings: one of the N-9 formulations; cited from earlier work

| Molecule | efficacy in decreasing rate of heterosexual HIV-1, gonorrhea and chlamydia transmission |
| --- | --- |
| nonoxynol-9 [N-9] | lack of efficacy |

test system: HIV-1; assay: disintegration of HIV-1 measured by release of p24; design: species or system HIV-1 IIIB; settings: 5 minutes at 37° C.
Procedure: With respect of FIG. 3, serial dilutions of untreated and treated HIV-1 were tested for p24 by ELISA. As a positive control, HIV-1 treated with the detergent NP40 was also tested. The results obtained with the "[…]"-glycerol formulation containing PVP and Crospovidone and N-40 were identical and indicated an 100-fold increase of released p24 antigen, as compared to background levels corresponding to untreated virus. The infectivity of HIV-1 was also eliminated by treatment with the "[…]"-glycerol formulation containing PVP and Crospovidone.
To determine whether or not the CAP Formulations affect the integrity of HIV-1, a preparation of purified virus (strain IIIB; 5 μl; 1.52×10^10 virus particles/ml; Advanced Biotechnologies, Columbia, Md.) was mixed with 45 μl of 0.14 M NaCl and 50 μl of the respective CAP Formulation, each prewarmed to 37° C. After 5 minutes at 37° C., 400 μl of 0.14 M NaCl were added, and the mixture was filtered through a 0.45μ filter prewashed with 0.14 M NaCl, 0.01 M Tris pH 7.2, 0.02 NaN3 (TS). Serial 5-fold dilutions of the filtrate were tested by ELISA for the p24 antigen, as described above. In control experiments, either untreated HIV-1 IIIB or virus treated with the detergent NP40 (final concentration 5 mg/ml; 5 minutes at 37° C.) were equally diluted and tested for the p24 antigen. […]

| Molecule | increase of released p24 antigen compared to untreated virus [fold] |
| --- | --- |
| NP40 | 100 |

test system: HIV-1; assay: not given; settings: cited from earlier work

| Molecule | in vitro inactivation of HIV-1 |
| --- | --- |
| nonoxynol-9 [N-9] | shown to inactivate in vitro |

test system: HSV-2; assay: not given; settings: cited from earlier work

| Molecule | in vitro inactivation of HSV-2 |
| --- | --- |
| nonoxynol-9 [N-9] | shown to inactivate in vitro |

test system: Chlamydia trachomatis; assay: not given; settings: cited from earlier work

| Molecule | in vitro inactivation of Chlamydia trachomatis |
| --- | --- |
| nonoxynol-9 [N-9] | shown to inactivate in vitro |
